The target in test [1] is T1, PGI2 receptor (Homo sapiens, UniProt P43119).
T1 construct: human blood platelet membrane fraction (0.3 mg protein) was added; from tissue; host or cells: human blood platelets (membrane fraction)
Put plainly: Inhibitory activity on binding of ^3 H-iloprost to PGI2 receptor on human blood platelet membrane fraction. The note with it: 10 nM [^3H]-iloprost, human blood platelet membrane fraction (0.3 mg protein), 24° C., 30 min, pH 7.4. As for the experimental part:
i) Inhibitory activity on binding of ^3 H-iloprost to PGI2 receptor on human blood platelet membrane fraction Method 50 mM Tris-HCl buffer (pH 7.4) containing 15 mM MgCl2, 5 mM EDTA and 10 nM [^3 H]-iloprost were used as reaction medium. To 0.2 ml of the reaction medium, human blood platelet membrane fraction (0.3 mg protein) was added with or without a test compound. The mixture was incubated at 24° C. for 30 min. After incubation, 4 ml of ice-cold 10 mM Tris-HCl buffer (pH 7.4) was added to the reaction mixture, and filtered through Whatman GF/B glass fiber filter, and washed 4 times with 4 ml of ice-cold 10 mM Tris-HCl buffer (pH 7.4) to separate bound and free [^3 H]-iloprost. After washing, the filter was dried and radioactivity was counted. Non-specific binding was obtained by performing parallel binding experiments in the presence of 10 μM non-labelled iloprost. Specific binding was calculated by subtracting the non-specific binding from the total binding. The inhibitory effect of test compound was calculated from the following equation. The percentage of inhibition (%)=100-(B1 /B0 ×100) B1 : specific [^3 H]-iloprost binding in presence of test compound B0 : specific [^3 H]-iloprost binding in absence of test compound

In test [2] the test system is human blood platelet aggregation. Briefly: Inhibitory effect on human blood platelet aggregation (ADP-induced, platelet-rich plasma). In kind it is cell-based. The note with it: human PRP (5×10^5 platelets/mm^3), test compound 1 min prior to ADP (4 μm). As for the experimental part: ii) Inhibitory effect on human blood platelet aggregation
Platelet-rich plasma (PRP) was prepared from human blood (5×10^5 platelets/mm^3), and a test compound was added to PRP 1 min prior to the addition of ADP (4 μm). The aggregation was monitored using a platelet aggregometer (NBS HEMA TRACER 601, Niko Bioscience, Japan).

T1 sequence (P43119 whole entry): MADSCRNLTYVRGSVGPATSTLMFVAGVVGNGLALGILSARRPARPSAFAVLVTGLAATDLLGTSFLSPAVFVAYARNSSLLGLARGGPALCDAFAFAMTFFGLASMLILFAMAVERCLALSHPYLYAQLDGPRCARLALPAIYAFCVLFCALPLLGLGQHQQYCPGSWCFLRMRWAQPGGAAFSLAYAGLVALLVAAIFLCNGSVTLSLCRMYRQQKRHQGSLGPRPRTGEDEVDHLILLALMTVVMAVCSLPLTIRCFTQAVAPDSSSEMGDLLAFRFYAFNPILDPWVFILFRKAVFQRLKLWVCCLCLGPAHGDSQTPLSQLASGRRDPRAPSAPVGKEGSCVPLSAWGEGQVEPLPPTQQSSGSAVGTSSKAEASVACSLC

As to `O=C(O)COc1cccc2c1CCC(Cn1cc(C(c3ccccc3)c3cccnc3)cn1)=C2` (centres unmarked) [22(a), [2-(4-((3-Pyridyl)phenylmethyl)pyrazol-1-yl)methyl-3,4-dihydronaphthalen-5-yloxy] acetic acid], the IC50 (commonly the concentration at which inhibition is half-maximal) in test [1] stood at 160 nM.
As to `O=C(O)COc1cccc2c1CCC(COc1nc(-c3ccccc3)c(-c3ccccc3)n1-c1ccccc1)C2` (centres unmarked) [2(d), [2-(1,4,5-Triphenylimidazol-2-yloxy)methyl-1,2,3,4-tetrahydronaphthalen-5-yloxy] acetic acid], the IC50 came to 6800 nM in test [1] and 20 µM in test [2].
Taken in the same sequence, the figures for `CCc1oc(C(c2ccccc2)c2ccccc2)nc1CC1CCc2c(cccc2OCC(=O)O)C1` (centres unmarked) [Example 14, [2-(2-Diphenylmethyl-5-ethyloxazol-4-yl)methyl-1,2,3,4-tetrahydronaphthalen-5-yloxy] acetic acid] were 940 nM and 1.6 µM.
In the same order, the values of `O=C(O)COc1cccc2c1CCC(CSc1nc(-c3ccccc3)c(-c3ccccc3)[nH]1)C2` (centres unmarked) [2(c), [2-(4,5-Diphenylimidazol-2-ylthio)methyl-1,2,3,4-tetrahydronaphthalen-5-yloxy] acetic acid] are 3900 nM and 12 µM.
For `O=C(O)COc1cccc2c1CCCC2CCn1cnc(-c2ccccc2)c1-c1ccccc1` (centres unmarked) [Example 6, [1-[2-(4,5-Diphenylimidazol-1-yl)ethyl]-1,2,3,4-tetrahydronaphthalen-5-yloxy] acetic acid], the IC50 in test [1] is 5000 nM.
For `O=C(O)COc1cccc2c1CCC(Cc1coc(C(c3ccccc3)c3ccccc3)n1)C2` (centres unmarked) [Example 12, [2-(2-Diphenylmethyloxazol-4-yl)methyl-1,2,3,4-tetrahydronaphthalen-5-yloxy] acetic acid], the values for the IC50 in test [1] and in test [2] were 320 nM and 1 µM, respectively.
In the case of `O=C(O)COc1cccc2c1CCCC2CCn1c(-c2ccccc2)c(-c2ccccc2)n(-c2ccccc2)c1=O` (centres unmarked) [6(b), [1-(2-(1,4,5-Triphenyl-2-oxo-2,3-dihydroimidazol-3-yl)ethyl)-1,2,3,4-tetrahydronaphthalen-5-yloxy] acetic acid], the IC50 in test [1] was 4000 nM; in test [2], 16 µM.
Taken in the same sequence, the figures for `O=C(O)COc1cccc2c1CCC(Cc1c[nH]c(C(c3ccccc3)c3ccccc3)n1)C2` (centres unmarked) [Example 16, [2-(2-Diphenylmethylimidazol-4-yl)methyl-1,2,3,4-tetrahydronaphthalen-5-yloxy] acetic acid] were 6800 nM and 12 µM.
In test [1], `O=C(O)COc1cccc2c1CCC(CCn1cc(C(c3ccccc3)c3ccccc3)cn1)C2` (centres unmarked) [4(f), [2-(2-(4-Diphenylmethylpyrazol-1-yl)ethyl)-1,2,3,4-tetrahydronaphthalen-5-yloxy] acetic acid] registered an IC50 of 1400 nM.
Still for that read-out and setting: as for `O=C(O)COc1cccc2c1CCCC2CCn1cc(C(c2ccccc2)c2ccccc2)cn1` (centres unmarked) [6(c), [1-(2-(4-Diphenylmethylpyrazol-1-yl)ethyl)-1,2,3,4-tetrahydronaphthalen-5-yloxy] acetic acid], the figure is 58 nM.
As to `O=C(O)COc1cccc2c1CCC(CCSc1nc(-c3ccccc3)c(-c3ccccc3)[nH]1)C2` (centres unmarked) [4(b), [2-(2-(4,5-Diphenylimidazol-2-ylthio)ethyl)-1,2,3,4-tetrahydronaphthalen-5-yloxy] acetic acid], the results for the IC50 in test [1] and in test [2] were 5000 nM and 11 µM, respectively.
Taken in the same sequence, the figures for `O=C(O)COc1cccc2c1CCC(Cn1cc(C(c3ccccc3)c3cccnc3)cn1)C2` (centres unmarked) [2(i), [2-(4-((3-pyridyl)phenylmethyl)pyrazol-1-yl)methyl-1,2,3,4-tetrahydronaphthalen-5-yloxy] acetic acid] were 210 nM and 0.15 µM.
With `O=C(O)COc1cccc2c1CCC(Cn1cc(C(c3ccccc3)c3ccccc3)cn1)C2` (centres unmarked) [Example 2, [2-(4-Diphenylmethylpyrazol-1-yl)methyl-1,2,3,4-tetrahydronaphthalen-5-yloxy]acetic acid], the IC50 in test [1] came to 43 nM; in test [2], 0.045 µM.
In the same order, the values of `O=C(O)COc1cccc2c1CCC(Cn1cnc(-c3ccccc3)c1-c1ccccc1)C2` (centres unmarked) [2(a), [2-(4,5-Diphenylimidazol-1-yl)methyl-1,2,3,4-tetrahydronaphthalen-5-yloxy]acetic acid] are 2300 nM and 13 µM.
`O=C(O)COc1cccc2c1CCC(Cn1c(-c3ccccc3)c(-c3ccccc3)n(-c3ccccc3)c1=O)C2` (centres unmarked) [2(e), [2-(3,4,5-Triphenyl-2-oxo-2,3-dihydroimidazol-1-yl)methyl-1,2,3,4-tetrahydronaphthalen-5-yloxy] acetic acid]: the IC50 in test [1] was found to be 2600 nM; in test [2], 15 µM.
Regarding `O=C(O)COc1cccc2c1CCC(Cn1cc(C(c3ccccc3)n3ccnc3)cn1)C2` (centres unmarked) [Example 24, [2-(4-((1-Imidazolyl)phenylmethyl)pyrazol-1-yl)methyl-1,2,3,4-tetrahydronaphthalen-5-yloxy] acetic acid], the IC50 in test [1] is 8000 nM.
The compound `O=C(O)COc1cccc2c1CCCC2CCc1nc(C(c2ccccc2)c2ccccc2)no1` (centres unmarked) [Example 8, [1-[2-(3-Diphenylmethyl-1,2,4-oxadiazol-5-yl)ethyl]-1,2,3,4-tetrahydronaphthalen-5-yloxy] acetic acid] gave an IC50 in test [1] of 2000 nM.
As to `O=C(O)COc1cccc2c1CCC(Cc1nc(C(c3ccccc3)c3ccccc3)co1)C2` (centres unmarked) [Example 10, [2-(4-Diphenylmethyloxazol-2-yl)methyl-1,2,3,4-tetrahydronaphthalen-5-yloxy] acetic acid], the IC50 in test [1] was 1800 nM; in test [2], 5.1 µM.
On to `O=C(O)COc1cccc2c1CCC(Cn1cc(C(c3ccccc3)c3ccccc3)cn1)=C2` [Example 22, [2-(4-(Diphenylmethyl)pyrazol-1-yl)methyl-3,4-dihydronaphthalen-5-yloxy] acetic acid], for which the figures for the IC50 in test [1] and in test [2] were 18 nM and 0.093 µM, respectively.
For `O=C(O)COc1cccc2c1CCC(CCOc1nc(-c3ccccc3)c(-c3ccccc3)n1-c1ccccc1)C2` (centres unmarked) [4(c), [2-(2-(1,4,5-Triphenylimidazol-2-yloxy)ethyl)-1,2,3,4-tetrahydronaphthalen-5-yloxy] acetic acid], the IC50 in test [1] turned out to be 8200 nM.
In the case of `O=C(O)COc1cccc2c1CCC(Cn1cnc(C(c3ccccc3)c3ccccc3)c1)C2` (centres unmarked) [2(g), [2-(4-Diphenylmethylimidazol-1-yl)methyl-1,2,3,4-tetrahydronaphthalen-5-yloxy] acetic acid], the IC50 in test [1] amounted to 350 nM; in test [2], 0.3 µM.
On to `O=C(O)COc1cccc2c1CCC(Cc1nc(C(c3ccccc3)c3ccccc3)no1)C2` (centres unmarked) [8(a), [2-(3-Diphenylmethyl-1,2,4-oxadiazol-5-yl)methyl-1,2,3,4-tetrahydronaphthalen-5-yloxy] acetic acid], for which the IC50 in test [1] was determined as 260 nM; in test [2] it was 1 µM.
In turn, `O=C(O)COc1cccc2c1CCC(Cn1ccc(C(c3ccccc3)c3ccccc3)n1)C2` (centres unmarked) [2(h), [2-(3-Diphenylmethylpyrazol-1-yl)methyl-1,2,3,4-tetrahydronaphthalen-5-yloxy] acetic acid] came in with an IC50 in test [1] of 360 nM.

The record behind these values is patent publication US5589496A, “Fused benzeneoxyacetic acid derivatives which have PGI2 receptor agonist activity” (Ono Pharmaceutical Co., Ltd., priority 1991, dated 1996).
